Several values for one entry are separate records, joined by “and”; a condition that tells them apart may be missing. Equal entries are not always repeated. Entries after “also recorded” stand apart in the source; their conditions may differ.
Columns and labels:
COX II [1] = biological target: T1, COX II (Homo sapiens, UniProt P35354); assay: TxB2 production in human whole blood activated with lipopolysaccharide (COX II); format: cell-based; settings: 5 hr incubation with compound and 10 μg/ml LPS; RIA determination of TxB2; read-out: COX II IC50, inhibition of TxB2 production
T1 sequence (P35354 18-604): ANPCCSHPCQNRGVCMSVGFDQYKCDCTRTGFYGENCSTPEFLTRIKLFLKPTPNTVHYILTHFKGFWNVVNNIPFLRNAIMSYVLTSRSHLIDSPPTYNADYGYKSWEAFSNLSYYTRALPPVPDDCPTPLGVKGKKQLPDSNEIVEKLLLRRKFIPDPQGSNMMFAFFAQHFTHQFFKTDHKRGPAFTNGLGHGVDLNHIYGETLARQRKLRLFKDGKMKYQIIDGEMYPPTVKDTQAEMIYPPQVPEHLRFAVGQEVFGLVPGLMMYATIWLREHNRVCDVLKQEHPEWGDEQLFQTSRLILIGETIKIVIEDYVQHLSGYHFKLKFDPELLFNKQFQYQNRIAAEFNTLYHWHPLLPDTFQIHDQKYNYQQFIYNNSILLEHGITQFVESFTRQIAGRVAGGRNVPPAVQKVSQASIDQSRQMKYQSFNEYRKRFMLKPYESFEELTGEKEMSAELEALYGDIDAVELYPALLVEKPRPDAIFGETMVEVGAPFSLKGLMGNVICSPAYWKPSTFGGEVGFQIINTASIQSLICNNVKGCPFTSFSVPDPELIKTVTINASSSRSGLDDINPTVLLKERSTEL

[2] = tested on: carrageenan-induced paw edema; assay: Carrageenan-induced paw edema in the rat; format: in vivo; settings: oral
Description: Carrageenan-induced paw edema in the rat has been used as the primary in vivo screen for anti-inflammatory activity of most NSAIDs.
Over a series of assays, in which Compound (16), suspended in SSV, was administered orally to rats 1 hour prior to injection of carrageenan, Compound (16) inhibited carrageenan-induced paw edema (ED30 =1.1±1.0 mg/kg).

[3] = tested on: adjuvant-induced arthritis; assay: adjuvant-induced arthritis in the rat; format: in vivo
[4] = tested on: phenylquinone-induced writhing; assay: Phenylquinone-induced Mouse Writhing Assay; format: in vivo; settings: 20 or 60 minutes prior to phenylquinone
Description: Analgetic activity is determined by the Phenylquinone-induced Mouse Writhing Assay, Hendershot, et al., J. Pharmacol. Exp. Ther., 125:237-240 (1959). This assay is one of several acute assays which have been used to assess the analgesic activity of NSAIDs. At the appropriate time after test material administration, phenylquinone is injected intraperitoneally to mice, inducing a series of characteristic "writhing" responses, which are counted between 10 and 20 minutes after phenylquinone injection.
In this assay, Compound (16), suspended in SSV, was tested over the dose range of 1-100 mg/kg administered 20 or 60 minutes prior to phenylquinone challenge.

[5] = two week range finding toxicity study in rats; format: in vivo, rat
Description: A two week range finding study in rats was carried out at daily doses of 10, 30, 100 and 300 mg/kg of Compound (16).

COX II [6] = biological target: T1, COX II; assay: radiometric assay, COX II inhibition (human recombinant, baculovirus expressed, partially purified); format: biochemical; set-up: A 1.8 Kb DNA fragment containing the coding region of human COX II was generated by PCR; made in house; host or cells: Sf9 insect cells, baculovirus
Procedure, shortened: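 Partially purified baculovirus-expressed human enzyme preincubated with compound, 2 mM phenol (5 min) then 1 μM hematin (5 min). Reaction in Tris-HCl pH 7.9 with 20 μM 1-[14C]arachidonate for 45 s at room temperature, acid-stopped; oxygenated products isolated on Sep-Pak and counted by scintillation.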

COX I = COX I (Homo sapiens, UniProt P23219); assay: radiometric assay, COX I inhibition (human recombinant, baculovirus expressed, partially purified); format: biochemical; set-up: A 2 Kb fragment containing the coding region of COX I; made in house; host or cells: Sf9 insect cells, baculovirus (cDNA from Oxford Biomedical Research); settings: very low substrate concentration
[7] = 10, 30, 100 and 300 mg/kg daily, two weeks

Sequence of COX I (P23219 24-599): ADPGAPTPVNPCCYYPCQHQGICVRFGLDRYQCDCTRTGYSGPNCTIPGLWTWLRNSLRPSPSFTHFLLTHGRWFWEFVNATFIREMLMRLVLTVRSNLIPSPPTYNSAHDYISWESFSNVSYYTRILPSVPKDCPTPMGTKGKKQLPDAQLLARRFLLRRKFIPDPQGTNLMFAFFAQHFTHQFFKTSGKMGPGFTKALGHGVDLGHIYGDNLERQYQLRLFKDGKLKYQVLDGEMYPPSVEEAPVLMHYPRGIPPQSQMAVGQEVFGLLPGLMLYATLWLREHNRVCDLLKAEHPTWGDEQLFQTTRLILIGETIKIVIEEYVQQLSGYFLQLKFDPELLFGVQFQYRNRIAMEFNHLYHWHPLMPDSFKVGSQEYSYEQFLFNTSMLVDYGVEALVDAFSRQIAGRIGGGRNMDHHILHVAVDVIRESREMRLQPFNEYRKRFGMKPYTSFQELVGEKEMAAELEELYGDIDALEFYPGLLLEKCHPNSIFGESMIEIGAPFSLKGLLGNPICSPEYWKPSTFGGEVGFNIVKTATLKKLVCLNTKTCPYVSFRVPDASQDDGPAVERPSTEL

For `Cc1cc(Cc2ccc(=O)[nH]n2)n(C)c1C(=O)c1ccc(Cl)cc1` [Compound 16, 6-[1,4-dimethyl-5-(4chloro-benzoyl)-1H-pyrrol-2-ylmethyl]-2H-pyridazin-3-one], the IC50 (COX II [1]) was 4700 nM and 4560 nM, the ED30 ([2]; Rattus norvegicus, in SSV, 1 hour prior to carrageenan, series of assays, read-out: ED30, inhibition of carrageenan-induced paw edema) was 1.1 ± 1 mg/kg and the “inhibition of paw edema at the appropriate dose” value ([2]; maximum amount achievable with NSAIDs) was ~ 60%. The ED40 ([3]; Rattus norvegicus, po, 408 h, based on the three assays) was 3.2 ± 2.6 mg/kg, the “inhibition of adjuvant-induced arthritis” value ([3]; first test, 2 mg/kg/day, oral bid 17 days) was 31% and the “inhibition of adjuvant-induced arthritis” value ([3]; first test, 5 mg/kg/day, oral bid 17 days) was 66%. For the same compound, the “inhibition of adjuvant-induced arthritis” value ([3]; second test, 2 mg/kg/day) was 43%, the “inhibition of adjuvant-induced arthritis” value ([3]; second test, 5 mg/kg/day) was 48% and the “inhibition of adjuvant-induced arthritis” value ([3]; second test, 10 mg/kg/day) was 52%. The “maximum inhibition of adjuvant-induced arthritis” value ([3]; third test, 100 mg/kg) was 80%, the “inhibition of phenylquinone-induced writhing” value ([4]; 100 mg/kg, in SSV) was 100% and the ED50 ([4]; Mus musculus, 1-100 mg/kg) was about 10 mg/kg. The clinical chemistry [5, 7] was “No clinical chemistry abnormalities were detected”, the clinical signs [5, 7] was “no adverse clinical signs were noted” and the gross necropsy findings [5, 7] was “no drug-related gross necropsy findings”. For the same compound, the histopathological findings [5, 7] was “no histopathological findings”, the “lesions in the stomach or intestines” value [5, 7] was “no lesions were noted in the stomach or intestines” and the “intestinal lesions in toxicology range-finding study” value ([5]; up to 300 mg/kg/day for 14 days) was “no intestinal lesions were observed”. For the same compound, the “type of inhibition of COX II” value (COX II [6]) was “potent, time-dependent, reversible inhibition”, the IC50 (COX II [6]; 10 min incubation with compound, 45 sec incubation with 20 μM AA, separation of radioactive products, read-out: COX II IC50) was 580 to 900 nM and 580 nM and 900 nM and 640 nM and the “selectivity for COX II” value (COX II [6]; COX II over COX I) was “significantly more selective for COX II than currently available NSAIDs; also recorded: highly selective for COX II”. The “type of inhibition of COX I” value (COX I) was “weak, competitive, non-time dependent inhibition”.
